From US20240094229A1, “CRISPR-CAS /TRANSCRIPTION FACTOR-BASED COMPETITION ASSAY FOR DETECTION OF MOLECULAR ANALYTES” (Arizona Board of Regents on Behalf of Arizona State …, priority 2022, published 2024)
Where “and” joins values, the source holds several entries; their conditions need not be identical. Equal entries are not always repeated. Structures can show the parent of a compound that is named as a salt.

Experiments:
[1] = biological target: T1, TetR (Escherichia coli, UniProt P04483); assay: TetR biosensor, Cas12a cleavage reaction with fluorescence readout, detection of aTc and Doxy; assay type: biochemical
T1 construct: His tag; made in house; host or cells: E. coli BL21 Star (DE3)
Protocol: (§1) Target and nontarget strands (NTS) were annealed at a 1:2 ratio in 1× TAE+12.5 mM Mg^2+ for 5 minutes at 95° C., then snap cooled. To form the DNA/TF complex, 100 nM dsTarget complexes were incubated with 10 μM corresponding transcription factors (unless otherwise stated) for 15 minutes at 37° C. in incubation buffer (40 mM Tris-HCl 8 mM MgCl2, 20 mM NaCl, pH 8). Small molecules were added next, following the same incubation procedure. Prior to addition, small molecules were suspended in water, DMSO or ethanol.
(§2) To monitor small molecule detection, 2 μl of the DNA/TF or DNA/TF/SM mixture were added to 10 μl total Cas12a cleavage reaction. […] Cleavage reactions were then immediately added to a microplate such as a Corning 384-well Black Flat Bottom Plates and read on a SynergyNeo2 Biotek fluorescence plate reader. Fluorescence measurements were taken with 487 nm excitation, 528 nm emission from the bottom of the plate for 2 hours. Fluorescence curves show raw fluorescence images unless otherwise stated.
(§3) Dose response curves were fit on OriginLab graphing software using equation 1. A1 is the minimum asymptote, A2 is the maximum asymptote, X is the log of a given dosage, and p is the hill slope. The center of the curve is equal to Log x0, so the half response or EC 50=10^Logx0.
The limit of detection for the biosensor was tested by introducing a range of small molecules from 4 nM to 40 μM using a 50:1 TetR dimer/dsDNA ratio (FIGS. 3E and F). […] The dose response curve of the biosensor was further assessed using the EC 50 value, which represents the concentration of a drug or analyte needed to reach a half maximum output signal based on a protein-analyte interaction.
Detection limits were also considered using the standard definition of LOD which considers LOD to be equal to the fluorescence of the blank sample plus three times the standard deviation (Table 7 and Table 8). The detection limit was determined using the equation (39):
Here, Sbl is equal to the mean of the SM negative samples and kSbl is the number of standard deviations of the negative sample added. For the Doxy experiments, 8 replicates were run and k=3. […] The detection limit (bolded) was then determined as the lowest concentration corresponding to a fluorescence signal great than Sm (the mean of small molecule negative samples+3× the standard deviation).

[2] = biological target: T1, TetR; assay: TetR biosensor, lateral flow readout; assay type: biochemical; conditions: for second (test) band on lateral flow strip: TetR biosensor, 20-nt gRNA, 30 minutes cleavage
Protocol: (§4) DNA/TF/small molecule samples were incubated and added to Cas12a reactions containing 106 nM Cas12a, 100 nM gRNA, and 200 nM FAM-[…]-Biotin (SEQ ID NO: 38) or 5′FAM-TTTT(internal T-Biotin)TTTTT-BHQ1 (SEQ ID NO: 38) reporter (IDT). The Cas12a concentration was increased to speed up the reaction time. Samples were incubated for 30 minutes at 37° C. on a thermocycler block. The 10 μl samples were added directly to the dipstick, HybriDetect Universal Lateral Flow Assays from Milenia Biotec (MGHD1) and placed in 100 μl of LF running buffer containing 50% PEG 800. PEG was used to slow capillary flow down, giving reporter strands more time to interact with gold nanoparticle-antibody conjugates before flowing down the assay. This provided cleaner negative results. After 2 minutes, dipsticks were removed and imaged using a cellphone camera.
The trans-cleavage capabilities of Cas12a can cleave any single-stranded DNA in the system, enabling a variety of chemical modifications to be used in the single-stranded reporter. This feature allows for implementation of a visible paper-based lateral flow readout system using reporters with FAM and biotin modifications on either end (19, 21-26). When paired with a lateral flow assay, the fully intact reporter binds to the first line (control line) along with an attached gold nanoparticle/antibody complex, and can be visualized, as shown in FIG. 10. When Cas12a enzyme is active, the reporter is cleaved and the portion containing the gold nanoparticle flows down the assay and can be visualized by the formation of the second band. Thus, the presence of two bands is used to indicate the presence of the target small molecule.
Next, the lateral flow readout was tested by introducing aTc, Doxy, and IPTG to the TetR biosensor. The samples were incubated with Cas12a cleavage mixture containing the 20-nt gRNA. […] Thus, the lateral flow assay can provide a visual readout mechanism for the biosensor, and the assay remains small-molecule specific.
To ensure the biosensor could provide adequate sensitivity, limit of detection experiments were repeated using TetR for detecting aTc and Doxy on the lateral flow assays.

[3] = test system: MphR; assay: MphR biosensor, lateral flow readout for erythromycin; assay type: biochemical; conditions: 15 minutes of cleavage
Protocol: as §4, with “Samples were incubated for 30 minutes at 37° C. on a thermocycler block.” left out
The robustness of the lateral flow readout scheme was further tested using the TF MphR to detect the antibiotic erythromycin. […] A closer look at the mean pixel intensity of the bands for the assays for 1, 0.5, 0.25, 0.05 μM and no SM confirm a decrease below 1 μM but show a readable signal in the ˜100 nM range (FIG. 14B). Lateral flow readout was also tested using the LacI-IPTG biosensor. A higher ratio between the IPTG+ and − samples were seen even with high concentrations of Lad, but a discernible difference in SM+ samples was still visualized (FIG. 15).

[4] = biological target: T2, CymR (Pseudomonas putida, UniProt O33453, A171V/S110G); assay type: biochemical; conditions: CymR biosensor, slope of kinetic curves
T2 construct: His tag; made in house
Protocol: as §1, §2, §3

[5] = test system: Cas12a; assay: Toxicity study for DMSO on Cas12a activation; assay type: biochemical, Lachnospiraceae bacterium; conditions: 0.03% DMSO
Protocol: The toxicity of solvents on Cas12a activation was tested by titrating in DMSO and monitoring the fluorescence output over two hours. A more significant decrease in activation was observed above 1% DMSO.

[6] = EC 50, 10 μM TetR, 50:1 TetR dimer/dsDNA ratio, small molecule 4 nM to 40 μM
[7] = EC:50, 5 nM dsDNA, 500 nM TF (TetR), 24 nt gRNA, 1 h
[8] = EC:50, 50 nM dsDNA, 5 μM TF (TetR), 20 nt gRNA, 30 minutes of cleavage
[9] = EC:50, 50 nM dsDNA, 5 μM TF (TetR), 24 nt gRNA, 1 h
[10] = EC:50, 100 nM dsDNA, 2 μM TF (TetR), 1 h
[11] = EC:50, 100 nM dsDNA, 10 μM TF (TetR), 1 h, 50-fold TetR dimer:DNA
[12] = EC:50, 100 nM dsDNA, 20 μM TF (TetR), 1 h
[13] = 10 μM TetR, 50:1 TetR dimer/dsDNA ratio

T1 sequence (P04483 whole entry): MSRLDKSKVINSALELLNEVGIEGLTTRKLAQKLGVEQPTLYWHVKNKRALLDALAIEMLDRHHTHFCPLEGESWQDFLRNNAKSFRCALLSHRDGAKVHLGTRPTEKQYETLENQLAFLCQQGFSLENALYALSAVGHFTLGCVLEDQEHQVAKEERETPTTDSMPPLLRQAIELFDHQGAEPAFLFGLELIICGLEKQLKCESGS
T2 sequence (O33453 whole entry S110G/A171V): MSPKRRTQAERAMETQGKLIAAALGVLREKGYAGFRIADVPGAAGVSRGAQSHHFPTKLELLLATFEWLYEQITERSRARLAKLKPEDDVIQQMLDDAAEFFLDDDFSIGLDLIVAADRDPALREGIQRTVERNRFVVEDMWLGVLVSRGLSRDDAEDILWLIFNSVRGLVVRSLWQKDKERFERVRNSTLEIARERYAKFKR

Row | SMILES | EC50 [1, 6] [nM] | EC50 [1, 7] | EC50 [1, 8] [nM] | EC50 [1, 9] [nM] | EC50 [1, 10] [nM] | EC50 [1, 11] [nM] | EC50 [1, 12] | EC50 [2] [nM] | second (test) band on lateral flow strip [2] | other results
1 | C[C@H]1c2cccc(O)c2C(=O)C2=C(O)[C@]3(O)C(=O)C(C(N)=O)=C(O)[C@@H](N(C)C)[C@@H]3[C@@H](O)[C@@H]21 [Doxy, doxycycline] | 766 | 87 nM and 88 nM | 430 | 1590 | 110 | 950 | 4000 nM and 4220 nM | 27 | – | –
2 | Cc1c2c(c(O)c3c(O)cccc13)C(=O)[C@]1(O)C(=O)C(C(N)=O)=C(O)[C@@H](N(C)C)[C@@H]1C2 [aTc, anhydrotetracycline-HCl] | 4230 | 50 nM | 1510 | 1770 | 840 | 4420 | 10600 nM | 380 | strong second band | concentration at complete loss of signal [1, 13]: 0.4 µM; concentration giving maximum (near maximum) fluorescence output [1, 13]: 10 µM; Fluorescence Mean ([1]; 20 nt gRNA, Concentration 0.005 (unit not given)): 21303.25; Fluorescence Mean ([1]; 20 nt gRNA, Concentration 0.01 (unit not given)): 21302; Fluorescence Mean ([1]; 20 nt gRNA, Concentration 0.05 (unit not given)): 24918.25; Fluorescence Mean ([1]; 20 nt gRNA, Concentration 0.1 (unit not given)): 32806; Fluorescence Mean ([1]; 20 nt gRNA, Concentration 1 (unit not given)): 40622.5; Fluorescence Mean ([1]; 24 nt gRNA, Concentration 0.005 (unit not given)): 9199.5; Fluorescence Mean ([1]; 24 nt gRNA, Concentration 0.01 (unit not given)): 8795; Fluorescence Mean ([1]; 24 nt gRNA, Concentration 0.05 (unit not given)): 12129.5; Fluorescence Mean ([1]; 24 nt gRNA, Concentration 0.1 (unit not given)): 20059; Fluorescence Mean ([1]; 24 nt gRNA, Concentration 1 (unit not given)): 30309.5; EC50 ([1]; EC:50, 5 nM dsDNA, 500 nM TF (TetR), 20 nt gRNA, 30 minutes of cleavage): 51 nM; concentration showing a discernible signal ([2]; lateral flow, 30 minutes of cleavage): 400 nM
3 | CC[C@H]1OC(=O)[C@H](C)[C@@H](O[C@H]2C[C@@](C)(OC)[C@@H](O)[C@H](C)O2)[C@H](C)[C@@H](O[C@@H]2O[C@H](C)C[C@H](N(C)C)[C@H]2O)[C@](C)(O)C[C@@H](C)C(=O)[C@H](C)[C@@H](O)[C@]1(C)O [Erythromycin] | – | – | – | – | – | – | – | – | – | concentration range with readable signal (mean pixel intensity) [3]: ~100 nM
4 | CC(C)c1ccc(C(=O)O)cc1 [cuminic acid] | – | – | – | – | – | – | – | – | – | linear region of cleavage rate vs SM concentration (calibration curve) [4]: ≤ 50 µM
5 | C[S+](C)[O-] [DMSO] | – | – | – | – | – | – | – | – | – | effects on Cas12a cleavage at experimental levels [5]: not detrimental
6 | CC(C)S[C@@H]1O[C@H](CO)[C@H](O)[C@H](O)[C@H]1O [IPTG, isopropyl β-D-1-thiogalactopyranoside] | – | – | – | – | – | – | – | – | little to no banding | –
